The results in this text go back to the supplement of paper PMC10307832.

Holding throughout (assay): relative viability (nuclei count vs DMSO), 5 days (fraction); higher = more cells survive
Compound in the assay “NVP-TAE684 + Bortezomib”: COc1cc(N2CCC(N3CCN(C)CC3)CC2)ccc1Nc1ncc(Cl)c(Nc2ccccc2S(=O)(=O)C(C)C)n1 [NVP-TAE684] + CC(C)C[C@H](NC(=O)[C@H](Cc1ccccc1)NC(=O)c1cnccn1)B(O)O [Bortezomib] (partner 0.002 µM)
An outline of the steps: (§1)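 Relative viability was taken as the ratio of nuclei in treated wells to nuclei in vehicle wells. Lung cancer cell lines in 1536-well plates received compounds by pin tool one day after seeding, either one drug alone or a fixed anchor-drug dose plus five library-drug doses (not always all listed) in √10 steps. Nuclei were counted on 4× images after 5 days of treatment, and values are medians of duplicate plates.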

Compound in the assay “NVP-TAE684 + Lapatinib”: COc1cc(N2CCC(N3CCN(C)CC3)CC2)ccc1Nc1ncc(Cl)c(Nc2ccccc2S(=O)(=O)C(C)C)n1 [NVP-TAE684] + CS(=O)(=O)CCNCc1ccc(-c2ccc3ncnc(Nc4ccc(OCc5cccc(F)c5)c(Cl)c4)c3c2)o1 [Lapatinib] (partner 2 µM)
In outline:
as §1

Compound in the assay “CUDC-101 + Dasatinib”: C#Cc1cccc(Nc2ncnc3cc(OC)c(OCCCCCCC(=O)NO)cc23)c1 [CUDC-101] + Cc1nc(Nc2ncc(C(=O)Nc3c(C)cccc3Cl)s2)cc(N2CCN(CCO)CC2)n1 [Dasatinib] (partner 0.075 µM)
In outline: as §1

Compound in the assay “Vandetanib + Linsitinib”: COc1cc2/c(=N/c3ccc(Br)cc3F)nc[nH]c2cc1OCC1CCN(C)CC1 [Vandetanib] + C[C@]1(O)C[C@@H](c2nc(-c3ccc4ccc(-c5ccccc5)nc4c3)c3c(N)nccn32)C1 [Linsitinib] (partner 1 µM)
An outline of the steps:
as §1

Take UMC-11: the relative viability with NVP-TAE684 + Bortezomib (first compound 0.2 µM) turned out to be 0.642; with NVP-TAE684 + Bortezomib (first compound 0.6325 µM), 0.97; in the assay with NVP-TAE684 + Bortezomib (first compound 2 µM), 0.393; in the assay with NVP-TAE684 + Lapatinib (first compound 0.2 µM), 1.03; in the assay with NVP-TAE684 + Lapatinib (first compound 0.6325 µM), 0.778; with NVP-TAE684 + Lapatinib (first compound 2 µM), 0.683. Further, the relative viability with CUDC-101 + Dasatinib (first compound 0.01 µM) was 0.436; with CUDC-101 + Dasatinib (first compound 0.03162 µM), 0.406; with CUDC-101 + Dasatinib (first compound 0.1 µM) it was 0.35; with CUDC-101 + Dasatinib (first compound 0.3162 µM), 0.227; with CUDC-101 + Dasatinib (first compound 1 µM), 0.0988; with Vandetanib + Linsitinib (first compound 0.02 µM), 0.978. The relative viability was 0.994 in the assay with Vandetanib + Linsitinib (first compound 0.06325 µM), 0.97 with Vandetanib + Linsitinib (first compound 0.2 µM), 0.885 with Vandetanib + Linsitinib (first compound 0.6325 µM) and 1 in the assay with Vandetanib + Linsitinib (first compound 2 µM).
